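Tested at 5 concentrations; 48 h exposure; 96-well plates; endpoints linearly interpolated, else capped at highest concentration. GI50 = concentration required for 50% inhibition of growth. At the TGI there is no net growth.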
How the values were obtained:
Test in all cases: DTP human tumour cell line panel, 48 h
U251 CNS = system: U251 CNS
SK-MEL-5 melanoma = system: SK-MEL-5 melanoma
RPMI-8226 leukemia = system: RPMI-8226 leukemia
A498 renal = system: A498 renal
UACC-62 melanoma = system: UACC-62 melanoma
CCRF-CEM leukemia = system: CCRF-CEM leukemia
HCT-116 colon = system: HCT-116 colon
M14 melanoma = system: M14 melanoma
NCI-H522 lung = system: NCI-H522 lung
SR leukemia = system: SR leukemia

## C/C(=N\O)C1CC(CC(=O)O)C1(C)C (stereo not given)
U251 CNS
  TGI: > 100 µM
SK-MEL-5 melanoma
  TGI: > 100 µM
RPMI-8226 leukemia
  TGI: > 100 µM
A498 renal
  TGI: > 100 µM
UACC-62 melanoma
  TGI: > 100 µM
CCRF-CEM leukemia
  TGI: > 100 µM
HCT-116 colon
  TGI: > 100 µM
M14 melanoma
  TGI: > 100 µM
NCI-H522 lung
  TGI: > 100 µM
SR leukemia
  TGI: > 100 µM

## O=C(Nc1nc2ccc(OC(F)(F)F)cc2s1)c1ccc(F)cc1
U251 CNS
  GI50: 3.98 µM
  TGI: > 100 µM
SK-MEL-5 melanoma
  GI50: 2.45 µM
  TGI: 6.6 µM
RPMI-8226 leukemia
  GI50: 2.52 µM
  TGI: 8.08 µM
A498 renal
  GI50: 2.93 µM
  TGI: 9.2 µM
UACC-62 melanoma
  GI50: 3.59 µM
  TGI: 50.3 µM
CCRF-CEM leukemia
  GI50: 3.96 µM
  TGI: > 100 µM
HCT-116 colon
  GI50: 2.98 µM
  TGI: 10.1 µM
M14 melanoma
  GI50: 4.4 µM
  TGI: > 100 µM
NCI-H522 lung
  GI50: 3.14 µM
  TGI: 11.4 µM
SR leukemia
  GI50: 3.68 µM
  TGI: 14.1 µM

## CS(=O)(=O)ON1C(=O)c2ccc(N)cc2C1=O
U251 CNS
  TGI: > 100 µM
SK-MEL-5 melanoma
  TGI: > 100 µM
RPMI-8226 leukemia
  TGI: 61.5 µM
A498 renal
  TGI: > 100 µM
UACC-62 melanoma
  TGI: > 100 µM
CCRF-CEM leukemia
  TGI: > 76.7 µM
HCT-116 colon
  TGI: > 100 µM
M14 melanoma
  TGI: > 100 µM
NCI-H522 lung
  TGI: 43.2 µM
SR leukemia
  TGI: > 68.8 µM

## O=C(NNC1=NS(=O)(=O)c2ccccc2N1c1ccccc1)c1cnccn1
U251 CNS
  GI50: > 100 µM
  TGI: > 100 µM
SK-MEL-5 melanoma
  GI50: > 100 µM
  TGI: > 100 µM
RPMI-8226 leukemia
  GI50: > 100 µM
  TGI: > 100 µM
A498 renal
  GI50: > 100 µM
  TGI: > 100 µM
UACC-62 melanoma
  GI50: > 100 µM
  TGI: > 100 µM
CCRF-CEM leukemia
  GI50: > 100 µM
  TGI: > 100 µM
HCT-116 colon
  GI50: > 100 µM
  TGI: > 100 µM
M14 melanoma
  GI50: > 100 µM
  TGI: > 100 µM
NCI-H522 lung
  GI50: > 100 µM
  TGI: > 100 µM
SR leukemia
  GI50: > 100 µM
  TGI: > 100 µM

## CC(=O)NC(CCc1ccc(Cl)c(Cl)c1)c1cccc(O)c(=O)c1 (stereo not given)
U251 CNS
  GI50: 0.428 µM
  TGI: 11.5 µM
SK-MEL-5 melanoma
  GI50: 0.234 µM
  TGI: 1.14 µM
RPMI-8226 leukemia
  GI50: 1.22 µM
  TGI: 19.7 µM
A498 renal
  GI50: 1.15 µM
  TGI: 25.8 µM
UACC-62 melanoma
  GI50: 0.619 µM
  TGI: 1.98 µM
CCRF-CEM leukemia
  GI50: 0.398 µM
  TGI: 16.3 µM
HCT-116 colon
  GI50: 0.315 µM
  TGI: 15.2 µM
M14 melanoma
  GI50: 0.434 µM
  TGI: 3.09 µM
NCI-H522 lung
  GI50: 0.488 µM
  TGI: 11.9 µM
SR leukemia
  GI50: 0.622 µM
  TGI: 31.1 µM

## CC[C@]1(O)CC2CN(CCc3c([nH]c4ccccc34)C(C(=O)OC)(c3cc4c(cc3OC)N(C=O)[C@H]3[C@@](O)(C(=O)OC)[C@H](OC(C)=O)[C@]5(CC)[C@@H]6C[C@@H]6CN6CC[C@]43[C@@H]65)C2)C1 (stereo not given in full)
U251 CNS
  GI50: < 0.00325 µM
  TGI: 0.146 µM
SK-MEL-5 melanoma
  GI50: < 0.00325 µM
  TGI: 0.0119 µM
RPMI-8226 leukemia
  GI50: < 0.00325 µM
  TGI: 0.0579 µM
A498 renal
  GI50: < 0.00325 µM
  TGI: 0.00882 µM
UACC-62 melanoma
  GI50: < 0.00325 µM
  TGI: > 21 µM
CCRF-CEM leukemia
  GI50: < 0.00325 µM
  TGI: 0.155 µM
HCT-116 colon
  GI50: < 0.00325 µM
  TGI: 0.00352 µM
M14 melanoma
  GI50: < 0.00325 µM
  TGI: 0.00478 µM
NCI-H522 lung
  GI50: < 0.00325 µM
  TGI: < 0.00325 µM
SR leukemia
  GI50: < 0.00325 µM
  TGI: 0.247 µM

## CN(C)CC1CCCC/C1=N\OC(=O)c1ccccc1 (stereo not given)
U251 CNS
  TGI: > 100 µM
SK-MEL-5 melanoma
  TGI: > 100 µM
RPMI-8226 leukemia
  TGI: > 100 µM
A498 renal
  TGI: > 100 µM
UACC-62 melanoma
  TGI: > 100 µM
CCRF-CEM leukemia
  TGI: > 100 µM
HCT-116 colon
  TGI: > 100 µM
M14 melanoma
  TGI: > 100 µM
NCI-H522 lung
  TGI: > 100 µM
SR leukemia
  TGI: > 100 µM

## O=C(O)C1CC[N-]CC1.O=C(O)C1CC[N-]CC1.[NH2-].[NH2-].[Pt+4]
U251 CNS
  GI50: > 100 µM
  TGI: > 100 µM
SK-MEL-5 melanoma
  GI50: > 100 µM
  TGI: > 100 µM
RPMI-8226 leukemia
  GI50: > 100 µM
  TGI: > 100 µM
A498 renal
  GI50: > 100 µM
  TGI: > 100 µM
UACC-62 melanoma
  GI50: > 100 µM
  TGI: > 100 µM
CCRF-CEM leukemia
  GI50: > 100 µM
  TGI: > 100 µM
HCT-116 colon
  GI50: > 100 µM
  TGI: > 100 µM
M14 melanoma
  GI50: > 100 µM
  TGI: > 100 µM
NCI-H522 lung
  GI50: > 100 µM
  TGI: > 100 µM
SR leukemia
  GI50: > 100 µM
  TGI: > 100 µM

## CN1CCC(=C(c2ccc(Cl)cc2)c2ccccn2)CC1
U251 CNS
  GI50: > 100 µM
  TGI: > 100 µM
SK-MEL-5 melanoma
  GI50: 50.7 µM
  TGI: > 100 µM
RPMI-8226 leukemia
  GI50: > 100 µM
  TGI: > 100 µM
A498 renal
  GI50: 45.8 µM
  TGI: > 100 µM
UACC-62 melanoma
  GI50: 33.3 µM
  TGI: > 100 µM
CCRF-CEM leukemia
  GI50: 4.37 µM
  TGI: > 100 µM
HCT-116 colon
  GI50: 66.5 µM
  TGI: > 100 µM
M14 melanoma
  GI50: 19.2 µM
  TGI: 38.7 µM
NCI-H522 lung
  GI50: 95.5 µM
  TGI: > 100 µM
SR leukemia
  GI50: > 100 µM
  TGI: > 100 µM

## [pH]1p2[pH]p3p1p3[pH]2.c1cc[c]([Ge]([c]2ccccc2)[c]2ccccc2)cc1.c1cc[c]([Ge]([c]2ccccc2)[c]2ccccc2)cc1.c1cc[c]([Ge]([c]2ccccc2)[c]2ccccc2)cc1
U251 CNS
  GI50: 7.54 µM
  TGI: 19.7 µM
SK-MEL-5 melanoma
  GI50: 34.1 µM
  TGI: 53.1 µM
RPMI-8226 leukemia
  GI50: 17.6 µM
  TGI: 75.5 µM
A498 renal
  GI50: 15.8 µM
  TGI: 30 µM
UACC-62 melanoma
  GI50: 14.3 µM
  TGI: 31 µM
CCRF-CEM leukemia
  GI50: 28 µM
  TGI: > 100 µM
HCT-116 colon
  GI50: 22.2 µM
  TGI: 62.3 µM
M14 melanoma
  GI50: 13.6 µM
  TGI: 27.3 µM
NCI-H522 lung
  GI50: 4.46 µM
  TGI: 17.8 µM
SR leukemia
  GI50: 12.8 µM
  TGI: 80.2 µM

## Cc1[nH]c(N)nc(=S)c1CCCNc1ccccc1
U251 CNS
  TGI: > 100 µM
SK-MEL-5 melanoma
  TGI: 80 µM
RPMI-8226 leukemia
  TGI: > 100 µM
A498 renal
  TGI: 92.4 µM
UACC-62 melanoma
  TGI: > 100 µM
CCRF-CEM leukemia
  TGI: > 100 µM
HCT-116 colon
  TGI: > 100 µM
M14 melanoma
  TGI: > 100 µM
NCI-H522 lung
  TGI: > 100 µM
SR leukemia
  TGI: 96.9 µM

## C=C1CC[C@@](C)(c2cc(Br)c(C)cc2OC(C)=O)[C@H]1C
U251 CNS
  GI50: 15.2 µM
  TGI: 29.7 µM
SK-MEL-5 melanoma
  GI50: 15.6 µM
  TGI: 29.2 µM
RPMI-8226 leukemia
  GI50: 9.55 µM
  TGI: 24.9 µM
A498 renal
  GI50: 16.8 µM
  TGI: 31.6 µM
UACC-62 melanoma
  GI50: 7.06 µM
  TGI: 20.1 µM
CCRF-CEM leukemia
  GI50: 8.88 µM
  TGI: 26.6 µM
HCT-116 colon
  GI50: 8.81 µM
  TGI: 20.8 µM
M14 melanoma
  GI50: 15.9 µM
  TGI: 30.6 µM
NCI-H522 lung
  GI50: 15 µM
  TGI: 31.4 µM
SR leukemia
  GI50: 11.2 µM
  TGI: 27.1 µM

From PubChem BioAssay (NCI)
